Test systems include SF-539; 786-0; SF-268; HCT-15; SN12C; NCI-H522; SR; NCI-H460; SNB-19; OVCAR-4; UACC-257; OVCAR-8; HOP-62; MDA-MB-231; KM12; HL-60; EKVX; CAKI-1; Hs-578T; U-251.
Common to all, as to test: inhibition of tumour cell growth, NCI panel, 48 h

The record followed here is ChEMBL document CHEMBL1201862, “PubChem BioAssay data set” (2004).

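Assay format: 96-well plates, 48-hour exposure. Here, GI50 denotes the concentration required for 50% inhibition of growth.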 Activity calls are given as the source filed them. Rule as the data show it: active = GI50 up to about 1.1 µM and inactive = higher.

`C=C1C(C)C2C(Cc3ccccc3)NC(=O)C23C(OC(C)=O)/C=C/C(C)(O)CC(C)C/C=C/C3C1O` (stereo not given): the GI50 in the assay with SF-539 is 0.0836 µM (active); in the assay on 786-0 it was 0.632 µM (active); with SF-268 it was 0.519 µM (active); with HCT-15 it was 2.7 µM; in the assay on SN12C it was 44.3 µM (inactive); with NCI-H522, 2.26 µM (inactive). Besides, the GI50 in the assay with SR is 27.5 µM (inactive); in the assay with NCI-H460 it was 0.29 µM (active); in the assay on SNB-19, 0.0863 µM (active); with OVCAR-4, 0.904 µM (active); with UACC-257, 17.1 µM (inactive); in the assay with OVCAR-8, 54.6 µM (inactive). Also, the GI50 was 0.0435 µM (active) with HOP-62; 0.222 µM (active) in the assay on MDA-MB-231; 97.3 µM (inactive) in the assay on KM12; 5.02 µM (inactive) in the assay on HL-60; 1.72 µM (inactive) in the assay on EKVX; 0.0288 µM (active) in the assay with CAKI-1. In addition, the GI50 in the assay on Hs-578T is 0.0129 µM (active); in the assay with U-251, 0.0679 µM (active).

For the compound `COC(=O)C(CC(C)C)NC(=O)C(NC(=O)c1ccc(-c2ccc(Cl)cc2Cl)o1)C(C)C` (stereo not given), the GI50 in the assay with SF-539 is 29.2 µM (inactive); with 786-0 it was 16.1 µM (inactive); in the assay on SF-268 it was 22 µM (inactive); in the assay on HCT-15, 20.7 µM; with SN12C it was 18 µM (inactive); in the assay on NCI-H522, 23.2 µM (inactive). Also, the GI50 was 19.2 µM (inactive) in the assay on SR; 14.9 µM (inactive) in the assay with NCI-H460; 30.5 µM (inactive) with SNB-19; 24.9 µM (inactive) in the assay on OVCAR-4; 17.1 µM (inactive) in the assay on UACC-257; 28.2 µM (inactive) with OVCAR-8. Moreover, the GI50 in the assay with HOP-62 was 21.4 µM (inactive); with MDA-MB-231, 13.8 µM (inactive); in the assay on KM12 it was 20.8 µM (inactive); with HL-60 it was 6.56 µM (inactive); in the assay on EKVX, 13.7 µM (inactive); with CAKI-1, 15.7 µM (inactive). The GI50 with Hs-578T is 27.5 µM (inactive); in the assay on U-251 it was 17.9 µM (inactive).

For `O=[N+]([O-])c1ccc(Oc2c(Cl)cc(S(=O)(=O)N/C(=N\O)Nc3ccc(Cl)cc3)cc2Cl)c(Cl)c1`, the GI50 with SF-539 was 20.3 µM (inactive); in the assay on 786-0 it was 14.7 µM (inactive); in the assay with SF-268, 13.6 µM (inactive); in the assay on HCT-15 it was 16.3 µM; in the assay with SN12C, 14.3 µM (inactive); with NCI-H522 it was 13 µM (inactive). In addition, the GI50 is 10.7 µM (inactive) in the assay on SR; 15.6 µM (inactive) in the assay with NCI-H460; 16.9 µM (inactive) in the assay with SNB-19; 11.7 µM (inactive) in the assay with OVCAR-4; 15.6 µM (inactive) in the assay with UACC-257; 22.8 µM (inactive) in the assay with OVCAR-8. For the same compound, the GI50 in the assay with HOP-62 is 16.5 µM (inactive); in the assay with MDA-MB-231 it was 17 µM (inactive); with KM12 it was 13.7 µM (inactive); with HL-60 it was 26.2 µM (inactive); with EKVX it was 14.8 µM (inactive); in the assay on CAKI-1, 14.8 µM (inactive). In addition, the values for the GI50 in the assay on Hs-578T and in the assay on U-251 were 13.7 µM (inactive) and 15.4 µM (inactive), respectively.

In the case of `COc1cc(Nc2nc3ccccc3nc2C(C)C)cc(OC)c1OC`, the GI50 in the assay with SF-539 is > 100 µM (inactive); with 786-0, > 100 µM (inactive); with SF-268, > 100 µM (inactive); with HCT-15 it was 90.4 µM; in the assay on SN12C, > 100 µM (inactive); in the assay on NCI-H522 it was 81.7 µM (inactive). For the same compound, the GI50 in the assay on SR is > 100 µM (inactive); with NCI-H460, > 100 µM (inactive); with SNB-19, > 100 µM (inactive); with OVCAR-4, > 100 µM (inactive); in the assay with UACC-257, > 100 µM (inactive); in the assay with OVCAR-8 it was 73.3 µM (inactive). Further, the GI50 is > 100 µM (inactive) with HOP-62; > 100 µM (inactive) in the assay on MDA-MB-231; > 100 µM (inactive) in the assay on KM12; > 100 µM (inactive) with HL-60; 42.7 µM (inactive) in the assay on EKVX; > 100 µM (inactive) in the assay on CAKI-1. For the same compound, the GI50 with Hs-578T and in the assay on U-251 was > 100 µM (inactive) each time.

Take `CC(=O)O[C@H]1C(=O)[C@@]2(C)[C@H]([C@H](OC(=O)c3ccc(F)cc3)[C@]3(O)C[C@H](OC(=O)[C@H](O)[C@@H](NC(=O)c4ccccc4)c4ccccc4)C(C)=C1C3(C)C)[C@]1(OC(C)=O)CO[C@@H]1C[C@@H]2O`: the GI50 with SF-539 was 0.0102 µM (active); with 786-0, 0.084 µM (active); with SF-268, 0.0929 µM (active); with HCT-15, 1.47 µM; in the assay with SN12C, 0.528 µM (active); with NCI-H522, 0.0116 µM (active). Besides, the GI50 with SR is 0.0108 µM (active); in the assay with NCI-H460, 0.0132 µM (active); in the assay on SNB-19 it was 0.0306 µM (active); in the assay on OVCAR-4 it was 6.58 µM (inactive); in the assay on UACC-257, 0.0399 µM (active); with OVCAR-8, 0.0181 µM (active). Moreover, the GI50 with HOP-62 is 0.126 µM (active); in the assay with MDA-MB-231 it was 0.219 µM (active); with KM12, 0.0113 µM (active); in the assay with HL-60 it was 0.00469 µM (active); in the assay on EKVX, 2 µM (inactive); in the assay with CAKI-1, 3.82 µM (inactive). For the same compound, the GI50 in the assay with Hs-578T was 0.00536 µM (active); in the assay on U-251, 0.00857 µM (active).

As for `CCOC(=O)/C=C(/C(=O)OCC)n1ccc(=O)n(/C(=C/C(=O)OCC)C(=O)OCC)c1=O`, the GI50 in the assay with SF-539 is 18.1 µM (inactive); in the assay with 786-0 it was 2.4 µM (inactive); in the assay on SF-268, 18.6 µM (inactive); in the assay on HCT-15, 2.19 µM; with SN12C, 4.43 µM (inactive); in the assay on NCI-H522, 1.61 µM (inactive). Besides, the GI50 in the assay on SR was 5.28 µM (inactive); in the assay with NCI-H460, 17.3 µM (inactive); in the assay with SNB-19, 20.3 µM (inactive); in the assay with OVCAR-4, 9.93 µM (inactive); in the assay on UACC-257 it was 10.6 µM (inactive); in the assay on OVCAR-8 it was 8.79 µM (inactive). Further, the GI50 is 25.9 µM (inactive) with HOP-62; 16.6 µM (inactive) in the assay with MDA-MB-231; 17.2 µM (inactive) with KM12; 0.859 µM (active) in the assay with HL-60; 11.4 µM (inactive) in the assay on EKVX; 1.66 µM (inactive) with CAKI-1. Also, the GI50 in the assay on Hs-578T was 20.9 µM (inactive); in the assay with U-251, 14.6 µM (inactive).

Turning to `CC1(C)COC2=C(C1)C(=O)c1ccccc1C2=O`, the GI50 in the assay with SF-539 was 1.54 µM (inactive); in the assay on 786-0 it was 1.84 µM (inactive); with SF-268 it was 1.65 µM (inactive); with HCT-15 it was 0.701 µM; with SN12C it was 1.36 µM (inactive); in the assay on NCI-H522 it was 1.85 µM (inactive). Further, the GI50 in the assay on SR is 2.66 µM (inactive); in the assay on NCI-H460 it was 1.91 µM (inactive); in the assay on SNB-19, 1.97 µM (inactive); in the assay on OVCAR-4, 1.53 µM (inactive); with UACC-257, 0.828 µM (active); with OVCAR-8, 0.493 µM (active). Further, the GI50 in the assay with HOP-62 was 1.99 µM (inactive); in the assay with MDA-MB-231 it was 2.04 µM (inactive); with KM12, 1.76 µM (inactive); in the assay on HL-60 it was 0.583 µM (active); in the assay with EKVX, 1.9 µM (inactive); in the assay on CAKI-1 it was 2.23 µM (inactive). The GI50 with Hs-578T is 2.88 µM (inactive); in the assay with U-251, 1.43 µM (inactive).
